In ChEMBL document CHEMBL5543097, “Synthesis and structure-activity relationships of novel 14-membered 2-fluoro ketolides with structural modification at the C11 position” (Eur J Med Chem, 2024):
In brackets after ≈: the same amount, converted by molar mass.

What was measured:
[1] = test system: Staphylococcus epidermidis; test: Antibacterial activity against erythromycin-resistant Staphylococcus epidermidis 19-9 assessed as inhibition of visible bacterial growth incubated for 18 hrs by broth microdilution method; type: functional
[2] = test system: Staphylococcus epidermidis; test: Antibacterial activity against erythromycin-resistant Staphylococcus epidermidis 19-6 assessed as inhibition of visible bacterial growth incubated for 18 hrs by broth microdilution method; type: functional
[3] = test system: Streptococcus pneumoniae; test: Antibacterial activity against erythromycin-resistant Streptococcus pneumoniae SPN19-8 assessed as inhibition of visible bacterial growth incubated for 18 hrs by broth microdilution method; type: functional
[4] = test system: Streptococcus pneumoniae; test: Antibacterial activity against erythromycin-resistant Streptococcus pneumoniae SPN19-13 assessed as inhibition of visible bacterial growth incubated for 18 hrs by broth microdilution method; type: functional
[5] = test system: Staphylococcus epidermidis; test: Antibacterial activity against erythromycin-resistant Staphylococcus epidermidis 19-5 assessed as inhibition of visible bacterial growth incubated for 18 hrs by broth microdilution method; type: functional
[6] = test system: Haemophilus influenzae; test: Antibacterial activity against Haemophilus influenzae HIN 19-18 assessed as inhibition of bacterial growth incubated for 20 to 24 hrs by CLSI based broth microdilution method; type: functional; settings: HIN 19-18, time 20-24 hrs
[7] = test system: Moraxella catarrhalis; test: Antibacterial activity against Moraxella catarrhalis BCA 19-5 assessed as inhibition of bacterial growth incubated for 24 hrs by CLSI based broth microdilution method; type: functional; settings: Moraxella catarrhalis, BCA 19-5, 24 h, read-out: MIC
[8] = test system: Streptococcus agalactiae; test: Antibacterial activity against erythromycin-resistant Streptococcus agalactiae 19-9 assessed as inhibition of visible bacterial growth incubated for 18 hrs by broth microdilution method; type: functional
[9] = Cytotoxicity against mouse AML12 cells assessed as reduction in cell viability incubated for 48 hrs by MTT assay; type: toxicity, cell-based
[10] = test system: Haemophilus influenzae; test: Antibacterial activity against Haemophilus influenzae HIN 19-15 assessed as inhibition of bacterial growth incubated for 20 to 24 hrs by CLSI based broth microdilution method; type: functional; settings: time 20-24 hrs
[11] = test system: Staphylococcus epidermidis; test: Antibacterial activity against erythromycin-resistant Staphylococcus epidermidis 19-11 assessed as inhibition of visible bacterial growth incubated for 18 hrs by broth microdilution method; type: functional
[12] = test system: Moraxella catarrhalis; test: Antibacterial activity against Moraxella catarrhalis BCA 19-6 assessed as inhibition of bacterial growth incubated for 24 hrs by CLSI based broth microdilution method; type: functional; settings: Moraxella catarrhalis, BCA 19-6, 24 h, read-out: MIC
[13] = test system: Staphylococcus epidermidis; test: Antibacterial activity against erythromycin-resistant Staphylococcus epidermidis 19-8 assessed as inhibition of visible bacterial growth incubated for 18 hrs by broth microdilution method; type: functional
[14] = test system: Streptococcus pneumoniae; test: Antibacterial activity against erythromycin-resistant Streptococcus pneumoniae SPN19-14 assessed as inhibition of visible bacterial growth incubated for 18 hrs by broth microdilution method; type: functional
[15] = test system: Streptococcus pyogenes; test: Antibacterial activity against erythromycin-resistant Streptococcus pyogenes ATCC 19615 assessed as inhibition of visible bacterial growth incubated for 18 hrs by broth microdilution method; type: functional
[16] = test system: Staphylococcus epidermidis; test: Antibacterial activity against erythromycin-resistant Staphylococcus epidermidis 19-4 assessed as inhibition of visible bacterial growth incubated for 18 hrs by broth microdilution method; type: functional
[17] = test system: Streptococcus agalactiae; test: Antibacterial activity against erythromycin-resistant Streptococcus agalactiae 19-8 assessed as inhibition of visible bacterial growth incubated for 18 hrs by broth microdilution method; type: functional
[18] = test system: Moraxella catarrhalis; test: Antibacterial activity against Moraxella catarrhalis BCA 19-31 assessed as inhibition of bacterial growth incubated for 24 hrs by CLSI based broth microdilution method; type: functional; settings: BCA 19-31, 24 h
[19] = test system: Haemophilus influenzae; test: Antibacterial activity against Haemophilus influenzae HIN 20-18 assessed as inhibition of bacterial growth incubated for 20 to 24 hrs by CLSI based broth microdilution method; type: functional; settings: time 20-24 hrs

MIC [19] [µg/mL]	Structure (SMILES)	MIC [1] [µg/mL]	MIC [2] [µg/mL]	MIC [3] [µg/mL]	MIC [4] [µg/mL]	MIC [5] [µg/mL]	MIC [6] [µg/mL]	MIC [7] [µg/mL]	MIC [8] [µg/mL]	CC50 at 48 h [9] [µM]	MIC [10] [µg/mL]	MIC [11] [µg/mL]	MIC [12] [µg/mL]	MIC [13] [µg/mL]	MIC [14] [µg/mL]	MIC [15] [µg/mL]	MIC [16] [µg/mL]	MIC [17] [µg/mL]	MIC [18] [µg/mL]
–	CC[C@H]1OC(=O)[C@@](C)(F)C(=O)[C@H](C)[C@@H](O[C@@H]2O[C@H](C)C[C@H](N(C)C)[C@H]2O)[C@](C)(OC)C[C@@H](C)C(=O)[C@H](C)[C@H]2N(CCCOC(=O)Nc3ccc(SC)cc3)C(=O)O[C@]12C	0.25 (≈ 0.293 µM)	0.125 (≈ 0.146 µM)	1 (≈ 1.17 µM)	0.25 (≈ 0.293 µM)	0.125 (≈ 0.146 µM)	8 (≈ 9.37 µM)	0.5 (≈ 0.585 µM)	16 (≈ 18.7 µM)	76.1	16 (≈ 18.7 µM)	0.125 (≈ 0.146 µM)	0.5 (≈ 0.585 µM)	0.125 (≈ 0.146 µM)	0.25 (≈ 0.293 µM)	< 0.03	0.125 (≈ 0.146 µM)	0.03 (≈ 0.0351 µM)	0.125 (≈ 0.146 µM)
16 (≈ 19.1 µM)	CC[C@H]1OC(=O)[C@@](C)(F)C(=O)[C@H](C)[C@@H](O[C@@H]2O[C@H](C)C[C@H](N(C)C)[C@H]2O)[C@](C)(OC)C[C@@H](C)C(=O)[C@H](C)[C@H]2N(CCCOC(=O)Nc3cc(C)ccc3C)C(=O)O[C@]12C	–	–	–	–	–	8 (≈ 9.57 µM)	0.125 (≈ 0.15 µM)	–	33.1	8 (≈ 9.57 µM)	–	0.125 (≈ 0.15 µM)	–	–	–	–	–	0.125 (≈ 0.15 µM)
–	CCc1ccc(NC(=O)OCCCN2C(=O)O[C@]3(C)[C@@H](CC)OC(=O)[C@@](C)(F)C(=O)[C@H](C)[C@@H](O[C@@H]4O[C@H](C)C[C@H](N(C)C)[C@H]4O)[C@](C)(OC)C[C@@H](C)C(=O)[C@H](C)[C@@H]23)cc1	0.125 (≈ 0.15 µM)	< 0.03	0.125 (≈ 0.15 µM)	0.06 (≈ 0.0718 µM)	< 0.03	–	–	0.5 (≈ 0.598 µM)	25.6	–	0.03 (≈ 0.0359 µM)	–	< 0.03	< 0.03	< 0.03	< 0.03	< 0.03	–
> 16	CC[C@H]1OC(=O)[C@@](C)(F)C(=O)[C@H](C)[C@@H](O[C@@H]2O[C@H](C)C[C@H](N(C)C)[C@H]2O)[C@](C)(OC)C[C@@H](C)C(=O)[C@H](C)[C@H]2N(CCCOC(=O)Nc3cc(C)oc3C(F)(F)F)C(=O)O[C@]12C	–	–	–	–	–	4 (≈ 4.55 µM)	0.5 (≈ 0.568 µM)	–	35.9	0.5 (≈ 0.568 µM)	–	0.5 (≈ 0.568 µM)	–	–	–	–	–	0.5 (≈ 0.568 µM)
–	CC[C@H]1OC(=O)[C@@](C)(F)C(=O)[C@H](C)[C@@H](O[C@@H]2O[C@H](C)C[C@H](N(C)C)[C@H]2O)[C@](C)(OC)C[C@@H](C)C(=O)[C@H](C)[C@H]2N(CCCOC(=O)Nc3cc(C)cc(C)c3)C(=O)O[C@]12C	0.5 (≈ 0.598 µM)	0.5 (≈ 0.598 µM)	0.5 (≈ 0.598 µM)	0.5 (≈ 0.598 µM)	< 0.03	16 (≈ 19.1 µM)	1 (≈ 1.2 µM)	4 (≈ 4.78 µM)	25.5	16 (≈ 19.1 µM)	0.25 (≈ 0.299 µM)	1 (≈ 1.2 µM)	0.25 (≈ 0.299 µM)	1 (≈ 1.2 µM)	< 0.03	< 0.25	0.06 (≈ 0.0718 µM)	0.5 (≈ 0.598 µM)
–	CC[C@H]1OC(=O)[C@@](C)(F)C(=O)[C@H](C)[C@@H](O[C@@H]2O[C@H](C)C[C@H](N(C)C)[C@H]2O)[C@](C)(OC)C[C@@H](C)C(=O)[C@H](C)[C@H]2N(CCCOC(=O)Nc3cccc(C(F)(F)F)c3)C(=O)O[C@]12C	1 (≈ 1.14 µM)	0.5 (≈ 0.571 µM)	2 (≈ 2.28 µM)	2 (≈ 2.28 µM)	0.5 (≈ 0.571 µM)	64 (≈ 73.1 µM)	1 (≈ 1.14 µM)	8 (≈ 9.13 µM)	12.4	64 (≈ 73.1 µM)	0.25 (≈ 0.285 µM)	1 (≈ 1.14 µM)	0.5 (≈ 0.571 µM)	2 (≈ 2.28 µM)	< 0.03	0.5 (≈ 0.571 µM)	< 0.03	4 (≈ 4.57 µM)

Structure (SMILES)	MIC [19] [µg/mL]	MIC [1] [µg/mL]	MIC [2] [µg/mL]	MIC [3] [µg/mL]	MIC [4] [µg/mL]	MIC [5] [µg/mL]	MIC [6] [µg/mL]	MIC [7] [µg/mL]	MIC [8] [µg/mL]	CC50 at 48 h [9] [µM]	MIC [10] [µg/mL]	MIC [11] [µg/mL]	MIC [12] [µg/mL]	MIC [13] [µg/mL]	MIC [14] [µg/mL]	MIC [15] [µg/mL]	MIC [16] [µg/mL]	MIC [17] [µg/mL]	MIC [18] [µg/mL]
CC[C@H]1OC(=O)[C@@](C)(F)C(=O)[C@H](C)[C@@H](O[C@@H]2O[C@H](C)C[C@H](N(C)C)[C@H]2O)[C@](C)(OC)C[C@@H](C)C(=O)[C@H](C)[C@H]2N(CCCOC(=O)Nc3cccc(Cl)c3)C(=O)O[C@]12C	16 (≈ 19 µM)	0.125 (≈ 0.148 µM)	< 0.03	0.125 (≈ 0.148 µM)	0.125 (≈ 0.148 µM)	< 0.03	4 (≈ 4.75 µM)	0.125 (≈ 0.148 µM)	0.5 (≈ 0.594 µM)	43.3	8 (≈ 9.5 µM)	< 0.03	2.25 (≈ 2.67 µM)	< 0.03	0.125 (≈ 0.148 µM)	< 0.03	0.03 (≈ 0.0356 µM)	–	–
